Test results from US6764855B2, “Fluorescent hplc assay for 20-hete and other p-450 metabolites of arachidonic acid” (MCW Research Foundation, priority 2000, dated 2004).

Assays:
P-4504A enzyme = P-4504A enzyme activity (20-HETE production) in renal cortical microsomes from treated rats; assay type: in vivo
Text: SHR and normotensive Sprague-Dawley rats were placed in special metabolic cages (model 650-00350; Nalgene, Rochester, N.Y.) that efficiently separated urine from food and feces and were allowed to equilibrate for 5 days. After 5 days, the food was withdrawn from the rat to prevent contamination of the urine sample and a 24-h control urine sample was collected on dry ice. After the control sample was collected, food was returned to the rats, and after a 2-day recovery period, the rats received an intraperitoneal injection of ABT (50 mg/kg) followed by a second (50 mg/kg) injection 12 h later. Two hours after administration of the first dose of ABT, food was withdrawn and a 24-h experimental urine sample was collected on dry ice. After the urine was collected, the rats were killed with pentobarbital sodium (100 mg/kg ip), and the kidneys were collected. The renal cortex was separated from the renal medulla, frozen in liquid nitrogen, and stored overnight for measurement of the renal metabolism of AA. Briefly, the renal cortex was homogenized in a 10 mM potassium phosphate buffer (pH 7.7) containing 250 mM sucrose, 1 mM EDTA, and 10 mM magnesium chloride, and microsomes were prepared by differential centrifugation. […] The radioactive products were monitored using a radioactive flow detector (model 120; Radiomatic Instrument, Tampa, Fla.).

[1] = system: urinary excretion of 20-HETE; experiment: Effect of an irreversible P-450 inhibitor on the urinary excretion of 20-HETE; assay type: in vivo, rats; settings: ABT 50 mg/kg ip, second 50 mg/kg injection 12 h later, 24-h urine vs control
Description: To label the fatty acids, we resuspended samples, which were extracted and dried under argon, in 20 μl of acetonitrile containing 36.4 mM 2-(2,3-naphthalimino)ethyl trifluoromethanesulfonate. N,N-diisopropylethylamine (10 μl) was added to catalyze the reaction. The sample was reacted for 30 min at room temperature. The reactions were dried down under argon, resuspended in 1 ml of 20% acetonitrile:water, and applied to a Sep-Pak Vac column. The column was washed with 6 ml of 50% acetonitrile:water solution to remove unreacted dye and eluted with 500 μl of ethyl acetate. The eluent was dried under argon, and the samples were resuspended in 100 μl of the IPLC mobile phase (methanol:water:acetic acid, 82:18:0.1 vol/vol/vol). […] Fluorescence intensity was continuously monitored using a fluorescence detector (model L-7480; Hitachi, Naperville, Ill.) at a medium gain sensitivity. The amount of 20-HETE in the sample was determined by comparing the area of the 20-HETE peak to that of an internal standard. […]
SHR and normotensive Sprague-Dawley rats were placed in special metabolic cages (model 650-00350; Nalgene, Rochester, N.Y.) that efficiently separated urine from food and feces and were allowed to equilibrate for 5 days. […] The radioactive products were monitored using a radioactive flow detector (model 120; Radiomatic Instrument, Tampa, Fla.).

For Nn1nnc2ccccc21 [ABT, 1-aminobenzotriazole], the “20-HETE production by renal cortical microsomes” value (P-4504A enzyme; microsomes from kidneys of ABT-treated SHR (n=4), vehicle 459±192) was 12±4 pmol●min^−1●mg^−1, the “20-HETE production by renal cortical microsomes” value (P-4504A enzyme; microsomes from kidneys of ABT-treated Sprague-Dawley rats (n=5), vehicle 324±25) was 25±3 pmol●min^−1●mg^−1 and the “fall in urinary excretion of 20-HETE after administration of ABT” value ([1]; SHR (n=4)) was 65±10%. For the same compound, the “fall in urinary excretion of 20-HETE after administration of ABT” value ([1]; Sprague-Dawley rats (n=5)) was 74±9%.
